Test results published in PMC12084609, “Structural insights into small-molecule agonist recognition and activation of complement receptor C3aR” (The EMBO Journal, 2025).
Changes are numbered by the printed parent chain. Several values for one entry are separate records, joined by “and”; a condition that tells them apart may be missing. Equal values may be shown once. Read-outs that look alike come from different tables or passages of the source.

Columns and labels:
Type in all cases: cell-based
C3aR L30^1.39A = biological target: T1, C3aR L30^1.39A (Homo sapiens, UniProt Q16581, L30A); assay: GloSensor-based cAMP assay, C3aR mutant L30A
T1 construct: expressed in transfected cells; host or cells: HEK293T
T1 sequence (Q16581 1-482 L30A): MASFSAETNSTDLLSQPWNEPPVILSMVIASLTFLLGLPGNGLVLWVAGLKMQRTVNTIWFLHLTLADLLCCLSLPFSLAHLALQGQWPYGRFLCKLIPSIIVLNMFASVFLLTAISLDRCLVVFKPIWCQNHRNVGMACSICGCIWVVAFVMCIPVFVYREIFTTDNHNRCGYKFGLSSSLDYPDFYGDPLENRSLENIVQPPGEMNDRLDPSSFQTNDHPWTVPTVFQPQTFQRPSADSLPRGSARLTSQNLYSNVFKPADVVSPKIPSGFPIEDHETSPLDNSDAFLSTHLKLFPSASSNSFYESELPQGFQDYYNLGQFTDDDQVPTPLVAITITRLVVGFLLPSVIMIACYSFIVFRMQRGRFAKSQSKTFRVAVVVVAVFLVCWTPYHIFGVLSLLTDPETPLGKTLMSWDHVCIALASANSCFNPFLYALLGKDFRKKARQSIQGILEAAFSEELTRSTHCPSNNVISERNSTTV
Procedure: (§1) HEK293T cells were seeded on 6-well plates (NEST) and transfected with pGlosensor™-22F plasmids (Promega) and pcDNA3.1 plasmids encoding C3aR or its mutants an with N-terminal FLAG tag. After 48 h, cells were detached with Accutase solution (Sigma-Aldrich) and washed with PBS, and resuspended in assay buffer (CO2-independent medium with 0.5 mg mL^−1D-luciferin). 100,000–200,000 cells were seeded on 96-well white bottom plates (SPL) and incubated at 37 °C for 45 min followed by 45 min incubation at room temperature. After 90 min of incubation, basal luminescence signals were recorded. In total, 25 μl of test ligand with various concentrations and 1 μM Forskolin (Sigma-Aldrich) were treated to the cells and luminescence signals were measured by Tristar 2 LB 942 multimode reader (Berthold). […] Relative luminescence unit (%) was calculated with the signal of wells treated with vehicle as 0% and the signal of wells treated with 1 μM Forskolin as 100% (DiRaddo et al, [2014]). Nonlinear regression was performed using a three-parameter logistic equation.

C3aR I102^3.32A = biological target: T2, C3aR I102^3.32A (Homo sapiens, UniProt Q16581, I102A); assay: GloSensor-based cAMP assay, C3aR mutant I102A
T2 construct: expressed in transfected cells; host or cells: HEK293T
T2 sequence (Q16581 1-482 I102A): T1 sequence (Q16581 1-482 L30A) with A30L, I102A
Procedure: as §1

C3aR H418^7.36A = biological target: T3, C3aR H418^7.36A (Homo sapiens, UniProt Q16581, H418A); assay: GloSensor-based cAMP assay, C3aR mutant H418A
T3 construct: expressed in transfected cells; host or cells: HEK293T
T3 sequence (Q16581 1-482 H418A): T1 sequence (Q16581 1-482 L30A) with A30L, H418A
Procedure: as §1

[1] = Dunnett's multiple comparisons test, WT minus mutant

With Cc1cc(C(c2ccc(Cl)cc2)c2ccc(Cl)cc2)sc1C(=O)N[C@@H](CCCNC(=N)N)C(=O)O [JR14a, reference compound] the “Mean Diff. of pIC50, WT vs. L30A” value (C3aR L30^1.39A; [1]) was 0.012, the IC50 (C3aR L30^1.39A; IC50, L30^1.39A, dose-response plot) was 5.58 nM and the remaining activity at 1 µM (C3aR L30^1.39A; L30A, Log[JR14a (M)] -6, single replicates, read-out: cAMP response (% Forskolin)) was 12.9%. The remaining activity at 0.1 µM (C3aR L30^1.39A; L30A, Log[JR14a (M)] -7, single replicates, read-out: cAMP response (% Forskolin)) was 13.4%, the remaining activity at 0.001 µM (C3aR L30^1.39A; L30A, Log[JR14a (M)] -9, single replicates, read-out: cAMP response (% Forskolin)) was 82.6% and the remaining activity at 0.0001 µM (C3aR L30^1.39A; L30A, Log[JR14a (M)] -10, single replicates, read-out: cAMP response (% Forskolin)) was 97.9%. The remaining activity at 10 pM (C3aR L30^1.39A; L30A, Log[JR14a (M)] -11, single replicates, read-out: cAMP response (% Forskolin)) was 98.1%, the “ΔpIC50 ± SE of Diff.” value (C3aR L30^1.39A; L30^1.39A relative to WT C3aR) was -0.01 ± 0.01 and the IC50 (C3aR L30^1.39A; pIC50 (Replicate), L30^1.39A, individual replicates) was 8.91 nM and 6.92 nM. It also gave an IC50 (C3aR L30^1.39A; pIC50 ± SEM (Mean), L30^1.39A, mean of independent experiments) of 5.37 nM, an IC50 (C3aR L30^1.39A; read-out: pIC50 (Replicate) (converted)) of 2.51 nM and a remaining activity at 1 µM (C3aR I102^3.32A; I102A, Log[JR14a (M)] -6, single replicates, read-out: cAMP response (% Forskolin)) of 11.4%. The remaining activity at 0.1 µM (C3aR I102^3.32A; I102A, Log[JR14a (M)] -7, single replicates, read-out: cAMP response (% Forskolin)) was 12.3%, the remaining activity at 0.01 µM (C3aR I102^3.32A; I102A, Log[JR14a (M)] -8, single replicates, read-out: cAMP response (% Forskolin)) was 52.6% and the remaining activity at 0.001 µM (C3aR I102^3.32A; I102A, Log[JR14a (M)] -9, single replicates, read-out: cAMP response (% Forskolin)) was 79.2%. For the same compound, the remaining activity at 0.0001 µM (C3aR I102^3.32A; I102A, Log[JR14a (M)] -10, single replicates, read-out: cAMP response (% Forskolin)) was 97.7%, the remaining activity at 10 pM (C3aR I102^3.32A; I102A, Log[JR14a (M)] -11, single replicates, read-out: cAMP response (% Forskolin)) was 104% and the “ΔpIC50 ± SE of Diff.” value (C3aR I102^3.32A; I102^3.32A relative to WT C3aR) was -0.13 ± 0.07. The IC50 (C3aR I102^3.32A; IC50, I102^3.32A, dose-response plot) was 7.05 nM, the IC50 (C3aR I102^3.32A; pIC50 (Replicate), I102^3.32A, individual replicates) was 7.76 nM and 9.12 nM and 4.68 nM and the IC50 (C3aR I102^3.32A; pIC50 ± SEM (Mean), I102^3.32A, mean of independent experiments) was 6.92 nM. For the same compound, the “Mean Diff. of pIC50, WT vs. H418A” value (C3aR H418^7.36A; [1]) was -0.145, the “ΔpIC50 ± SE of Diff.” value (C3aR H418^7.36A; H418^7.36A relative to WT C3aR) was 0.14 ± 0.08 and the IC50 (C3aR H418^7.36A; H418^7.36A, mean of independent experiments, read-out: pIC50 ± SEM (Mean) (converted)) was 2.51 nM. The IC50 (C3aR H418^7.36A; IC50, H418^7.36A, dose-response plot) was 2.56 nM and the IC50 (C3aR H418^7.36A; pIC50 (Replicate), H418^7.36A, individual replicates) was 2.04 nM and 4.07 nM and 4.79 nM and 0.977 nM.
